Measurements: patent US11919908B2, “Substituted pyrrolo[2,3-d]pyrimidine compounds as JAK2 V617F inhibitors” (Incyte Corporation, priority 2020, dated 2024)

Columns and labels:
[1] = biological target: T1, pseudo-kinase domain (JH2) of human Wild Type JAK2 (Homo sapiens, UniProt O60674, F794H/W659A/W777A); assay: JAK2 LanthaScreen JH2-WT Binding Assay; details: 50 nM Fluorescent JAK2-JH2 Tracer, 1 hour at 25° C.
T1 construct: pseudo-kinase domain (JH2, amino-acids 536-812 with 3 surface mutations W659A, W777A, F794H); His (C); purchased BPS Bioscience 79463; host or cells: baculovirus expression system
Description: (§1) Example B. JAK2 LanthaScreen JH2-WT Binding Assay JAK2 JH2-WT binding assay utilizes pseudo-kinase domain (JH2, amino-acids 536-812 with 3 surface mutations […]) of human Wild Type JAK2 expressed as C-terminal His-Avi-tagged, biotinylated protein in a baculovirus expression system (BPS Bioscience, Catalog #79463). The assay was conducted in black 384-well polystyrene plates in a final reaction volume of 20 μL. JAK2 JH2-WT (0.145 nM) was incubated with compounds (100 nL serially diluted in DMSO) in the presence of 50 nM Fluorescent JAK2-JH2 Tracer (MedChem Express Catalog #HY-102055) and 0.25 nM Streptavidin-Tb cryptate (Cisbio Part #610SATLB) in assay buffer (50 mM Tris, pH=7.5, 10 mM MgCl2, 0.01% Brij-35, 0.1% BSA, 1 mM EGTA, 5% Glycerol and 5 mM DTT). Non-specific binding was accessed in the presence of 2 mM ATP. After incubation for 1 hour at 25° C., LanthaScreen signals were read on a PHERAstar FS plate reader (BMG LABTECH). Data was analyzed with IDBS XLfit and GraphPad Prism 5.0 software using a four parameter dose response curve to determine IC50 for each compound.

[2] = biological target: T2, pseudo-kinase domain (JH2) of human V617F mutant JAK2 (Homo sapiens, UniProt O60674, F794H/V617F/W659A/W777A); assay: JAK2 LanthaScreen JH2-V617F Binding Assay; details: 50 nM Fluorescent JAK2-JH2 Tracer, 1 hour at 25° C.
T2 construct: pseudo-kinase domain (JH2, amino-acids 536-812 with 3 surface mutations W659A, W777A, F794H); His (C); purchased BPS Bioscience 79498; host or cells: baculovirus expression system
Description: as §1, with “C.” for “B.”, “JH2-V617F” for “JH2-WT”, “V617F mutant” for “Wild Type”, “#79498).” for “#79463).”, “JH2-V617F (0.26” for “JH2-WT (0.145”

[3] = biological target: T3, catalytic domain (JH1) of human JAK2 (Homo sapiens, UniProt O60674); assay: JAK2 LanthaScreen JH1 Binding Assay; details: 50 nM Fluorescent JAK2-JH1 Tracer, 2 hours at 25° C.
T3 construct: catalytic domain (JH1, amino acids 826-1132) of human JAK2; FLAG (N); purchased Carna Biosciences 08-445-20N; host or cells: baculovirus expression system
Description: Example A. JAK2 LanthaScreen […] Binding Assay JAK2 JH1 binding assay utilizes catalytic domain (JH1, amino acids 826-1132) of human JAK2 expressed as N-terminal FLAG-tagged, biotinylated protein in a baculovirus expression system (Carna Biosciences, Product #08-445-20N). The assay was conducted in black 384-well polystyrene plates in a final reaction volume of 20 μL. JAK2 JH1 (1.5 nM) was incubated with compounds (100 nL serially diluted in DMSO) in the presence of 50 nM Fluorescent JAK2-JH1 Tracer and 0.5 nM Streptavidin-Tb cryptate (Cisbio Part #610SATLB) in assay buffer (50 mM Tris, pH=7.5, 10 mM MgCl2, 0.01% Brij-35, 0.1% BSA, 1 mM EGTA, 5% Glycerol and 5 mM DTT). Non-specific binding was accessed in the presence of 2 mM ATP. After incubation for 2 hours at 25° C., LanthaScreen signals were read on a PHERAstar FS plate reader (BMG LABTECH). Data was analyzed with IDBS XLfit and GraphPad Prism 5.0 software using a four parameter dose response curve to determine IC50 for each compound.

T3 sequence (O60674 826-1132): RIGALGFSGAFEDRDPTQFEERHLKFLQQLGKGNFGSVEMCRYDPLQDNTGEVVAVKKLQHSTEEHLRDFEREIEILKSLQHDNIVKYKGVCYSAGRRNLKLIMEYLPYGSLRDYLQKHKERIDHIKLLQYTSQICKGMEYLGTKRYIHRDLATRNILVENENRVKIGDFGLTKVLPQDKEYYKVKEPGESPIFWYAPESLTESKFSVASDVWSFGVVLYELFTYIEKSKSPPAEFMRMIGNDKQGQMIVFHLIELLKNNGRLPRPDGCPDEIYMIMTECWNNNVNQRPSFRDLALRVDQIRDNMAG
T1 sequence (O60674 536-812 W659A/W777A/F794H): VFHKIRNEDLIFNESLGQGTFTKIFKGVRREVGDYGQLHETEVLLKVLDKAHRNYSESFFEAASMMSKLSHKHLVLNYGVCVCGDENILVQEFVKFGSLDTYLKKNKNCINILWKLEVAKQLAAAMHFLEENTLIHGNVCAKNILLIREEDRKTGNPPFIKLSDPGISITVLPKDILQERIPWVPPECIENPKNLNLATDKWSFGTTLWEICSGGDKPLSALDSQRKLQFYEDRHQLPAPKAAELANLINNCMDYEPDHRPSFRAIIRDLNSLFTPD
T2 sequence (O60674 536-812 V617F/W659A/W777A/F794H): as the sequence (O60674 536-812 W659A/W777A/F794H) above, with V82F counted along it

Row | Structure (SMILES) | IC50 [1] [nM] | IC50 [2] [nM] | IC50 [3] [nM]
1 | CN(C)S(=O)(=O)c1ccc(-c2[nH]c3nc(N)[nH]c(=O)c3c2-c2ccccc2OC(F)F)cc1 [Example 19, 4-(2-Amino-5-(2-(difluoromethoxy)phenyl)-4-oxo-4,7-dihydro-3H-pyrrolo[2,3-d]pyrimidin-6-yl)-N,N-dimethylbenzene sulfonamide] | > 2500 | 1000 to 2500 | > 2500
2 | CN(C)S(=O)(=O)c1ccc(-c2[nH]c3nc(N)[nH]c(=O)c3c2-c2cccc3cn[nH]c23)cc1 [Example 20, 4-(2-Amino-5-(1H-indazol-7-yl)-4-oxo-4,7-dihydro-3H-pyrrolo[2,3-d]pyrimidin-6-yl)-N,N-dimethylbenzene sulfonamide] | > 2500 | > 2500 | > 2500
3 | CN(C)S(=O)(=O)c1ccc(-c2[nH]c3nc(N)[nH]c(=O)c3c2-c2ccc3c(c2)CCNC3=O)cc1 [Example 21, 4-(2-Amino-4-oxo-5-(1-oxo-1,2,3,4-tetrahydro-isoquinolin-6-yl)-4,7-dihydro-3H-pyrrolo[2,3-d]pyrimidin-6-yl)-N,N-dimethylbenzene sulfonamide] | 100 to 500 | 100 to 500 | 1000 to 2500
4 | CN1CCOc2cc(-c3c(-c4ccc(S(=O)(=O)N(C)C)cc4)[nH]c4nc(N)[nH]c(=O)c34)ccc21 [Example 22, 4-(2-Amino-5-(4-methyl-3,4-dihydro-2H-benzo[b] [1,4]oxazin-7-yl)-4-oxo-4,7-dihydro-3H-pyrrolo [2,3-d]pyrimidin-6-yl)-N,N-dimethylbenzene sulfonamide] | 500 to 1000 | 500 to 1000 | 1000 to 2500
5 | COc1cc(C(N)=O)ccc1-c1c(-c2ccc(S(=O)(=O)N(C)C)cc2)[nH]c2nc(N)[nH]c(=O)c12 [Example 23, 4-(2-Amino-6-(4-(N,N-dimethylsulfamoyl)phenyl)-4-oxo-4,7-dihydro-3H-pyrrolo[2,3-d]pyrimidin-5-yl)-3-methoxy-benzamide] | 500 to 1000 | 500 to 1000 | > 2500
6 | COc1ccc(C(F)(F)F)cc1-c1c(-c2ccc(S(=O)(=O)N(C)C)cc2)[nH]c2nc(N)[nH]c(=O)c12 [Example 24, 4-(2-Amino-5-(2-methoxy-5-(trifluoromethyl)phenyl)-4-oxo-4,7-dihydro-3H-pyrrolo[2,3-d]pyrimidin-6-yl)-N,N-dimethylbenzene sulfonamide] | 1000 to 2500 | 1000 to 2500 | > 2500
7 | COc1ccc(OC)c(-c2c(-c3ccc(S(=O)(=O)N(C)C)cc3)[nH]c3nc(N)[nH]c(=O)c23)c1 [Example 25, 4-(2-Amino-5-(2,5-dimethoxyphenyl)-4-oxo-4,7-dihydro-3H-pyrrolo[2,3-d]pyrimidin-6-yl)-N,N-dimethylbenzene sulfonamide] | 500 to 1000 | 500 to 1000 | > 2500
8 | COc1ccc(Cl)cc1-c1c(-c2ccc(S(=O)(=O)N(C)C)cc2)[nH]c2nc(N)[nH]c(=O)c12 [Example 27, 4-(2-Amino-5-(5-chloro-2-methoxyphenyl)-4-oxo-4,7-dihydro-3H-pyrrolo[2,3-d]pyrimidin-6-yl)-N,N-dimethylbenzene sulfonamide] | 1000 to 2500 | > 2500 | > 2500
9 | COc1ncccc1-c1c(-c2ccc(S(=O)(=O)N(C)C)cc2)[nH]c2nc(N)[nH]c(=O)c12 [Example 28, 4-(2-Amino-5-(2-methoxy-pyridin-3-yl)-4-oxo-4,7-dihydro-3H-pyrrolo[2,3-d]pyrimidin-6-yl)-N,N-dimethylbenzene sulfonamide] | 1000 to 2500 | 1000 to 2500 | > 2500
10 | CN(C)S(=O)(=O)c1ccc(-c2[nH]c3nc(N)[nH]c(=O)c3c2-c2cnn(Cc3cccnc3)c2)cc1 [Example 29, 4-(2-Amino-4-oxo-5-(1-(pyridin-3-ylmethyl)-1H-pyrazol-4-yl)-4,7-dihydro-3H-pyrrolo[2,3-d]pyrimidin-6-yl)-N,N-dimethylbenzene sulfonamide] | > 2500 | > 2500 | > 2500
11 | CN(C)S(=O)(=O)c1ccc(-c2[nH]c3nc(N)[nH]c(=O)c3c2-c2cnn(Cc3ccccc3)c2)cc1 [Example 30, 4-(2-Amino-5-(1-benzyl-1H-pyrazol-4-yl)-4-oxo-4,7-dihydro-3H-pyrrolo[2,3-d]pyrimidin-6-yl)-N,N-dimethylbenzene sulfonamide] | > 2500 | > 2500 | > 2500
12 | CN(C)S(=O)(=O)c1ccc(-c2[nH]c3nc(N)[nH]c(=O)c3c2-c2cnn(Cc3ccc(C#N)cc3)c2)cc1 [Example 31, 4-(2-Amino-5-(1-(4-cyanobenzyl)-1H-pyrazol-4-yl)-4-oxo-4,7-dihydro-3H-pyrrolo[2,3-d]pyrimidin-6-yl)-N,N-dimethylbenzene sulfonamide] | 1000 to 2500 | 1000 to 2500 | 1000 to 2500
13 | CN(C)S(=O)(=O)c1ccc(-c2[nH]c3nc(N)[nH]c(=O)c3c2-c2cnn(Cc3ccncc3)c2)cc1 [Example 32, 4-(2-Amino-4-oxo-5-(1-(pyridin-4-ylmethyl)-1H-pyrazol-4-yl)-4,7-dihydro-3H-pyrrolo[2,3-d]pyrimidin-6-yl)-N,N-dimethylbenzene sulfonamide] | 1000 to 2500 | 1000 to 2500 | > 2500
14 | COc1cc2ccccc2cc1-c1c(-c2ccc(S(=O)(=O)N(C)C)cc2)[nH]c2nc(N)[nH]c(=O)c12 [Example 33, 4-(2-Amino-5-(3-methoxynaphthalen-2-yl)-4-oxo-4,7-dihydro-3H-pyrrolo[2,3-d]pyrimidin-6-yl)-N,N-dimethylbenzene sulfonamide] | 500 to 1000 | 500 to 1000 | > 2500
15 | CN(C)S(=O)(=O)c1ccc(-c2[nH]c3nc(N)[nH]c(=O)c3c2-c2cccc(C(=O)O)c2)cc1 [Example 34, 3-(2-amino-6-(4-(N,N-dimethylsulfamoyl)phenyl)-4-oxo-4,7-dihydro-3H-pyrrolo[2,3-d]pyrimidin-5-yl)benzoic acid] | 100 to 500 | 100 to 500 | > 2500
16 | CN(C)S(=O)(=O)c1ccc(-c2[nH]c3nc(N)[nH]c(=O)c3c2-c2ccc(C(=O)O)cc2)cc1 [Example 35, 4-(2-amino-6-(4-(N,N-dimethylsulfamoyl)phenyl)-4-oxo-4,7-dihydro-3H-pyrrolo[2,3-d]pyrimidin-5-yl)benzoic acid] | 100 to 500 | 100 to 500 | 500 to 1000
17 | CN(C)S(=O)(=O)c1ccc(-c2[nH]c3nc(N)[nH]c(=O)c3c2-c2cnn(C3CCS(=O)(=O)C3)c2)cc1 (stereo not drawn) [Example 36, 4-(2-Amino-5-(1-(1,1-dioxidotetrahydrothiophen-3-yl)-1H-pyrazol-4-yl)-4-oxo-4,7-dihydro-3H-pyrrolo[2,3-d]pyrimidin-6-yl)-N,N-dimethylbenzene sulfonamide] | 1000 to 2500 | 1000 to 2500 | 1000 to 2500
